Measured values reported in US11957766B2, “HNQO1-activatable fluorescent probe for imaging cancer cells in-vitro and in-vivo” (Texas Tech University System, priority 2019, dated 2024).

Key:
intracranial U87MG tumor = assay: Fluorescence imaging of hNQO1 in intracranial U87MG tumor-bearing mice with NQ-DCP; type: in vivo
Experimental: Fluorescence Imaging of hNQO1 in U87MG Tumor-Bearing Mice. With the prominent performance of NQ-DCP in cellular fluorescence imaging, the inventors further applied this probe to evaluate its capacity for the noninvasive fluorescence imaging of hNQO1 in vivo. NQ-DCP (10 mg/kg, 50 μL) was intravenously injected into sub-cutaneous U87MG tumor-bearing mice. The whole-body fluorescence was imaged with a Caliper IVIS Spectral imaging system. […] The host organs and tumor from the mice administered with NQ-DCP were harvested and their fluorescence was analyzed ex vivo using the IVIS to confirm the tumor-selective targeting ability of NQ-DCP. […] The application of NQ-DCP to image hNQO1 activity was also investigated in intracranial U87MG tumor-bearing mice. Tumor xenografts were established by implanting exponentially growing U87MG-Luc cells by stereotaxic injection into mice brain and the tumor growth was assessed by quantitative bioluminescence using IVIS (in vivo imaging system) (FIG. 7C). […] Therefore, the inventors performed intracranial injection of NQ-DCP (100 μM, 5 μL) to both healthy and tumor-bearing mice, the brain was isolated after 30 min and fluorescence images acquired.
Four-week-old male and female NCG and athymic nude mice were housed in a micro ventilated caging system in a sterile environment and fed ad-libitum with standard irradiated research rodent diet and water. To detect endogenous NQO1 activity, NQ-DCP (10 mg/kg) was dissolved PEG-400:EtOH:saline (57.1:14.3:28.6, v/v/v) and 50 μL given through intravenous injection and animals were imaged using IVIS Lumina XR Imaging system. To establish U87MG xenografts, a total of 5×10^6 cells (in 0.1 mL) were subcutaneously injected into the right inguinal area of the athymic nude mice. For establishing the orthotopic brain tumor model, the animals were anesthetized using 2% isoflurane and positioned in a Benchmark (Leica) stereotactic instrument. A 27-gauge needle was then used to drill a burr hole into the skull 0.5-mm anterior and 2-mm lateral to the bregma. U87MG-Luc2 cell suspension (2×10^5 cells in 5 μl PBS) was injected in the striatum at a depth of […] from the dural surface over 10 min. […] To detect endogenous NQO1 activity, orthotopic brain tumor models, NQ-DCP ([…]) was dissolved saline and 5 μL given through intracranial injection to both healthy and tumor-bearing mice. After 30 min of administration, brains were isolated and imaged using IVIS Lumina XR Imaging system.

A549, H460 cells = assay: Fluorescence microscopy of NIR-ASM in NQO1 expressing cancer cells; type: cell-based, human
Experimental: Detection of NQO1 in live cells. Inspired by the excellent biocompatibility, the inventors investigated its performance in both NQO1 expressing cancer cells (A549, H460) and NQO1 non-expressing normal cells (IMR90, HUVEC). All cells were incubated with NIR-ASM (10 μM) for 60 min, washed with PBS and were imaged under a confocal microscope after counterstaining the nuclei with Hoechst 33342 (FIG. 12A). […] The higher expression of NQO1 protein in A549 and H460 cells and its absence in normal cells, IMR90 and HUVEC as found with western blot analysis correlated with the probe reactivity in cells (FIG. 12B). […] Cell sorting using flow cytometry is a well-established technology in clinical diagnostics and biomedical research. To assess the applicability of the NIR-ASM to rapidly detect and quantify in both cancer and normal cells based on NQO1 expression, the probe was incubated with cell suspensions for 60 min, and about 1×10^4 cells were analyzed on a flow cytometer.
Fluorescence imaging. Both cancer and normal cells were seeded into 6-well plates and cultured overnight in respective media at 37° C. Cells were treated with 10 μM NIR-ASM and incubated at 37° C. for 60 min. They were then treated with nuclear stain Hoechst 33342 for 5 min. Finally, the medium was replaced with PBS and the live cells were imaged using a multiphoton confocal fluorescence microscope (λex/em=488/644 nm). […]

[1] = system: NQO1-negative MDA-MB-231 cells; assay: NIR-ASM in NQO1-negative control MDA-MB-231 cells; type: cell-based, human; settings: microscopy and flow cytometry
Experimental: (§1) Chemical and genetic approaches confirm the specificity of NIR-ASM for NQO1 in live tumor cells. A fluorescence probe with high sensitivity, simple operation, and excellent specificity will be an asset for the detection of NQO1 in situ. To assess the substrate selectivity of NIR-ASM for NQO1, both A549 and H460 cells were pretreated with 100 nM of NQO1 inhibitor ES936 for 6 h, before incubating with 10 μM NIR-ASM. […] The effect of ES936 on endogenous NQO1 activity and subsequent reactivity with NIR-ASM was also determined by flow cytometry. […] The presence of NQO1 protein in the transfected MDA-MB-231 cells and its absence in the untransfected control was confirmed by immunoblotting (FIG. 13E). Subsequently, the NQO1-negative and positive MDA-MB-231 cell lines were incubated with NIR-ASM and analyzed by fluorescence microscopy and flow cytometry for activation of the probe.
Fluorescence imaging. Both cancer and normal cells were seeded into 6-well plates and cultured overnight in respective media at 37° C. […] Finally, the medium was replaced with PBS and the live cells were imaged using a multiphoton confocal fluorescence microscope (λex/em=488/644 nm). […]
Flow cytometry analysis. The endogenous NQO1 activity of cancer cells and normal cells was determined by flow cytometry after NIR-ASM exposure. […] About 1×10^4 cells were analyzed by flow cytometry (λex=488 nm).

NQO1 in A549 cells = assay: siRNA knockdown of NQO1 and NIR-ASM activation; type: cell-based, human; settings: NQO1 expression silenced more than 70%, 60 min incubation, compared with the control
Experimental: as §1
Knockdown of NQO1 by small interfering RNA (siRNA). NQO1 and scrambled or control siRNAs were introduced into cells using the X-tremeGENE siRNA transfection reagent (Roche) according to the manufacturer's instructions. 10 μl of transfection reagent was mixed with 80 pmol of siRNA and added to A549 cells in six-well plates. siRNA transfection efficiency was confirmed with Western blotting.

[2] = intracranial injection 100 μM, 5 μL, brain isolated after 30 min

SMILES | blood-brain barrier crossing (intracranial U87MG tumor; explanation offered ("perhaps") for lack of signal after systemic injection) | ex vivo brain fluorescence, control healthy mouse (intracranial U87MG tumor; [2]) | ex vivo brain fluorescence, tumor-bearing mouse (intracranial U87MG tumor; [2]) | fluorescence signal in intracranial tumors (intracranial U87MG tumor; systemic injections of the probe) | fluorescence signal in NQO1 expressing cancer cells (A549, H460 cells; 10 μM, 60 min) | cell permeability (A549, H460 cells; inferred from intracellular activation) | fluorescence in control (NQO1-negative) cells [1] | NIR-ASM fluorescence after siRNA silencing of NQO1 (NQO1 in A549 cells)
CC1=C(C)C(=O)C(C(C)(C)CC(=O)Oc2ccc(/C=C/C3=CC(=C(C#N)C#N)CC(C)(C)C3)cc2)=C(C)C1=O [NQ-DCP] | inability of the NQ-DCP to cross the blood-brain barrier | no fluorescence | bright fluorescence signal | not able to observe any fluorescence signal | – | – | – | –
CC1=C(C)C(=O)C(C(C)(C)CC(=O)Nc2ccc(/C=C/C3=CC(=C(C#N)C#N)CC(C)(C)C3)cc2)=C(C)C1=O [NIR-ASM, (E)-N-(4-(2-(3-(dicyanomethylene)-5,5-dimethylcyclohex-1-en-1-yl)vinyl)phenyl)-3-methyl-3-(2,4,5-trimethyl-3,6-dioxocyclohexa-1,4-dien-1-yl)butanamide] | – | – | – | – | bright NIR fluorescence signal | confirm the cell permeability | No fluorescence | almost a total loss
